Measurements from US7612107B2, “Treatment and inhibition of disease conditions using flexible heteroarotinoids” (The Board of Regents of the University of Oklahoma, priority 2005, dated 2009).
Where two headings read alike, the source gives them in different places.

Experiments:
Raldh2-/- embryos = conditions: for No. of −/− rescued / No. of −/− unrescued: E10.25; for Teratogenesis: mouse, in vivo, po
Method: Briefly, retinoids were dissolved in corn oil and administered orally to timed-pregnant Raldh2_/_mice at 12-h intervals on E7.25, E7.75, and E8.25. Dosages varied from 0.025 to 25 mg/kg. At E10.25, embryos were analyzed morphologically to determine whether Raldh2_/_embryos were rescued or whether wild-type embryos had suffered teratogenesis. Detection of embryonic RA was performed in situ in embryos carrying the RARE-lacZ RA-reporter gene by staining for beta-galactosidase activity for 10 h (45).
A mouse model that lacks retinaldehyde dehydrogenase (Raldh2) due to null mutations was used to test the ability of Flex-Hets to substitute for retinoic acid (RA) and induce birth defects. […] We examined the relative ability of all-trans-RA, 9-cis-RA, receptor-specific synthetic retinoids and retinoic acid receptor independent Flex-Hets to rescue the Raldh2_/_embryonic lethal phenotype.

dorsal skin = assay: Topical irritancy in Skh hairless mice; format: in vivo
Method: Female Skh hairless mice, 6-8 weeks old, were treated topically on the dorsal skin for 4 days over a 2-log concentration dose range with various compounds. Retinoic acid receptor-Hets were evaluated in A, while retinoic acid receptor-independent Flex-Hets were evaluated in B. Daily flaking and abrasion scores were combined to calculate a single cutaneous toxicity score for each mouse. Each treatment group consisted of 4 mice, and group averages were used to plot cutaneous toxicity against doses of the compounds.
Topical irritancy was evaluated according to published procedures (29). Briefly, female Skh hairless mice, 6-8 weeks old, were treated topically on the dorsal skin for 4 days over a 2-log concentration dose range with various compounds. Daily flaking and abrasion scores were combined to calculate a single cutaneous toxicity score for each mouse. Each treatment group consists of 4 mice, and group averages are used to plot cutaneous toxicity against dose of the retinoid compound.

[1] = test system: organotypic cultures of human ovarian cancer cell lines and primary cultures; assay: Ovarian carcinoma organotypic cultures (TUNEL, histology); format: cell-based; conditions: 1 μM retinoid in media
Method: FIG. 17. Retinoid effects on ovarian carcinoma organotypic cultures. Organotypic cultures of OVCAR-3 (A, B, E, F, I and J), Caov-3 (C and G), SK-OV-3 (D and H), and O2 (K and L) were grown in the absence (−, top row and K) or presence (+, middle row and I, J and L) of retinoid HetA4 at a concentration of 1 μM in the media. All sections were stained with H&E except for […], which was stained with PAS to detect glycoproteins and glandular differentiation, and J, which was stained with the TUNEL assay to detect apoptosis. All magnifications are 40×.
To test our hypotheses, we evaluated the effects of clinically achievable concentrations of 4-HPR and Flex-Hets on growth, differentiation and apoptosis in ovarian tissue. A series of compounds with a variety of receptor activation profiles were evaluated. In order to evaluate therapeutic effects, we developed an organotypic culture model of ovarian tumors by growing established cell lines and primary cultures inside collagen gels. Monolayer cultures of cells are not accurate representations of in vivo tissue because they lack the types of interactions that cells have with other cells and with the extracellular matrix in vivo. These interactions are known to influence gene expression and thus the constitution and behavior of cells. In our organotypic model, the growth of tumor cells inside the collagen allows a representation of tumors that have invaded stromal tissue. In the presence of fibroblasts, established cell lines and primary cultures of ovarian cancer formed colonies inside the collagen, while normal or benign ovarian epithelial cells remained as single cells inside the collagen. Human ovarian cancer cell lines (OVCAR-3, Caov-3, SK-OV-3, A2780, UCI 101) and primary human cultures (borderline ovarian tumor (O1), serous papillary tumor (O2), benign ovarian cyst (O3)) were cultured inside and on top of a collagen gel seeded with 3T3 fibroblasts for one week. After further incubation in the presence or absence of 1 μM retinoid (media concentration) for 3, 7 or 14 days, cultures were fixed and sectioned for immunohistochemical analysis.
The TUNEL assay was used to evaluate apoptosis in fixed, paraffin embedded, cut sections of the treated and control cultures (FIG. 17). […] These two cellular outcomes appeared to be mutually exclusive.

OVCAR-3 xenograft tumors = assay: OVCAR-3 xenograft tumor growth model; format: in vivo, mouse; conditions: 10 mg/kg/day by gavage, 5 days per week, 4 weeks
Method: Groups of 5 mice bearing OVCAR-3 xenografted tumors were gavaged daily with the indicated drugs in sesame oil (▪ closed square) or with sesame oil alone (∘ open circle). Tumor volumes were measured in 3 dimensions with calipers weekly. Each data point represents the average and standard error of the tumor volumes on the indicated treatment day relative to the tumor volume on day zero. Nu/nu mice were injected subcutaneously with one million OVCAR-3 cells and arbitrarily divided into five groups of six mice each. After three weeks of tumor growth, the animals were gavaged with sesame oil, 10 mg/kg/day 4-HPR, or the indicated Het five times per week for four weeks and the tumors were measured once per week. The tumor sizes were averaged and divided by the average size for each group on the day that treatment was initiated (day 0).
The OVCAR-3 cultures were maintained in RPMI media supplemented with 10% fetal bovine serum. All animal experimentation described in this manuscript was conducted in accord with accepted standards of humane animal care. Twenty-five female NU/NU CD-1 female mice (Charles Rivers Laboratories) were housed in a laminar flow room under sterile conditions at 83-85° F. The mice were quarantined for one week prior to the beginning of the study and were allowed access to autoclaved food (Purina 5001 mouse/rat sterilizable diet, St. Louis, Mo.) and water ad libitum. OVCAR-3 cells in log phase growth were harvested by trypsinization, resuspended in RPMI culture medium, and centrifuged at 3,000 rpm for 10 min. The pellets were resuspended in RPMI culture medium at a concentration of 7×10^6 cells/ml before implantation into mice. Animals were injected with 3.5×10^6 cells into the right scapular region with a 24-gauge needle/1 cc tuberculin syringe. Twenty-four hours after tumor implantation, animals were randomized into 5 groups of 5 animals each.
The Hets SHet50, SHetA2 and SHetA4 were synthesized and their receptor specificity determined as previously described (17,19). The 4-HPR compound was a gift from R.W. Johnson Pharmaceutical Research Institute, Raritan, N.J. All retinoids were dissolved in super refined sesame oil (Croda, Inc., Parsippany, N.J.) and stored at −80° C. Since the retinoids are light sensitive, all manipulations involving retinoids were performed under subdued lighting. […] Tumors were measured with calipers weekly, and tumor volumes were calculated using the formula: volume=length×width×height. Tumor growth was determined by the dividing the volume of the tumor at each weekly measurement by the volume on the first day of treatment. Animal weights and clinical signs of overall health status and cutaneous toxicities were recorded weekly.

[2] = test system: human polycystic kidney disease cells; assay: 3-D model of polycystic kidney disease, cyst formation; format: cell-based; conditions: 4 μM, 3 weeks
Method: FIG. 21. Effects of Flex-Hets on formation of cysts in cultured polycystic kidney disease cells. A primary culture of polycystic kidney cells were grown inside a mixture of collagen I and matrigel and treated with prostaglandin E2 to induce cyst formation. Parallel cultures were treated with 10 micromolar SHetA3 and SHetA4.
The 3-D model of the PKD was developed as described here. Single-cell suspensions of the PCKD cell lines was re-suspended in a 4° C. solution mixture containing rat tail collagen I (Collaborative Biomedical Products, Bedford, Mass.), matrigel (Becton Dickinson) and MEM. The suspension was poured into Falcon cell culture inserts with transparent membranes containing 0.4 μm pores (Becton Dickinson, Franklin Lakes, N.J.) and placed at 37° C. Treatment of cultures was initiated after 1 day of growth and replenished with medium once in every two days. Drugs (Flex-Hets at 4 μM Conc.) and hormones (PGE2 at 25 ng/ml) were administered into the medium surrounding the insert. Untreated control cultures were grown in the same conditions as that of the treated cultures. Drug treatment was carried out for 3 weeks before their effects on growth and inhibition were evaluated.

[3] = more potent than RA; cited from earlier work
[4] = topical, dorsal skin, 4 days, 2-log dose range

CC1=C(/C=C/C(C)=C/C=C/C(C)=C/C(=O)O)C(C)(C)CCC1 [All-trans-RA]
No. of −/− rescued (Raldh2-/- embryos; Dose 1.0 mg/kg oral): 0 | No. of −/− unrescued (Raldh2-/- embryos; Dose 1.0 mg/kg oral): 7 | No. of −/− rescued (Raldh2-/- embryos; Dose 2.5 mg/kg oral): 13 | No. of −/− unrescued (Raldh2-/- embryos; Dose 2.5 mg/kg oral): 1 | Teratogenesis (Raldh2-/- embryos; 1 mg/kg): 0 | Teratogenesis (Raldh2-/- embryos; 2.5 mg/kg): 0

CC(C=CC=C(C)c1ccc2c(c1)C(C)(C)CS2)=CC(=O)O [SHet65]
Topical irritancy (cutaneous toxicity score) (dorsal skin; [4]): induced topical irritancy scores in a dose-responsive manner

CC1=C(/C=C/C(C)=C\C=C\C(C)=C\C(=O)O)C(C)(C)CCC1 [9-cis-RA]
No. of −/− rescued (Raldh2-/- embryos; Dose 2.5 mg/kg oral): 2 | No. of −/− unrescued (Raldh2-/- embryos; Dose 2.5 mg/kg oral): 8 | No. of −/− rescued (Raldh2-/- embryos; Dose 10 mg/kg oral): 6 | No. of −/− unrescued (Raldh2-/- embryos; Dose 10 mg/kg oral): 1 | Teratogenesis (Raldh2-/- embryos; 2.5 mg/kg): 0 | Teratogenesis (Raldh2-/- embryos; 10 mg/kg): 0 | Induction of apoptosis (TUNEL) in organotypic cultures [1]: Apoptosis was induced

CCOC(=O)c1ccc(OC(=O)c2ccc3c(c2)C(C)(C)CCN3C(C)C)cc1 [NHet17]
Topical irritancy (cutaneous toxicity score) (dorsal skin; [4]): induced topical irritancy scores in a dose-responsive manner

CCOC(=O)c1ccc(NC(=O)Nc2ccc3c(c2)C(C)(C)CC(C)(C)S3)cc1 [SHetA4]
Growth of xenograft tumors versus sesame oil control (OVCAR-3 xenograft tumors): significantly inhibited the growth | Topical irritancy (cutaneous toxicity score) (dorsal skin; mouse, in vivo): did not induce topical irritancy | Induction of apoptosis (TUNEL) in organotypic cultures [1]: Apoptosis was induced | Differentiated phenotype (tubular structures) [2]: induced the formation of several branched tubular structures | Cyst formation ([2]; PGE2 25 ng/ml): completely eliminated cyst formation

CC1(C)CCOc2ccc(C(=O)Oc3ccc(C=NNC(N)=S)cc3)cc21 [OHet72]
Topical irritancy (cutaneous toxicity score) (dorsal skin; mouse, in vivo): did not induce topical irritancy | Rescue of Raldh2−/− embryos (in words) (Raldh2-/- embryos; 2.5 mg/kg): no rescue | Rescue of Raldh2−/− embryos (in words) (Raldh2-/- embryos; 10 or 25 mg/kg): no rescue | No. of −/− rescued (Raldh2-/- embryos; Dose 2.5 mg/kg oral): 0 | No. of −/− unrescued (Raldh2-/- embryos; Dose 2.5 mg/kg oral): 4 | No. of −/− rescued (Raldh2-/- embryos; Dose 10 mg/kg oral): 0 | No. of −/− unrescued (Raldh2-/- embryos; Dose 10 mg/kg oral): 3 | No. of −/− rescued (Raldh2-/- embryos; Dose 25 mg/kg oral): 0 | No. of −/− unrescued (Raldh2-/- embryos; Dose 25 mg/kg oral): 5 | Teratogenesis (Raldh2-/- embryos; 2.5 mg/kg): 0 | Teratogenesis (Raldh2-/- embryos; 10 mg/kg): 0 | Teratogenesis (Raldh2-/- embryos; 25 mg/kg): 0

CC(Cc1ccc(C(=O)O)cc1)c1ccc2c(c1)C(C)(C)CS2 (stereo not drawn) [SHet100]
Rescue of Raldh2−/− embryos (in words) (Raldh2-/- embryos; 0.5 mg/kg): typical rescue phenotype | No. of −/− rescued (Raldh2-/- embryos; Dose 0.025 mg/kg oral): 0 | No. of −/− unrescued (Raldh2-/- embryos; Dose 0.025 mg/kg oral): 2 | No. of −/− rescued (Raldh2-/- embryos; Dose 0.25 mg/kg oral): 2 | No. of −/− unrescued (Raldh2-/- embryos; Dose 0.25 mg/kg oral): 0 | No. of −/− rescued (Raldh2-/- embryos; Dose 0.5 mg/kg oral): 6 | No. of −/− unrescued (Raldh2-/- embryos; Dose 0.5 mg/kg oral): 1 | Teratogenesis (Raldh2-/- embryos; 0.025 mg/kg): 0 | Teratogenesis (Raldh2-/- embryos; 0.25 mg/kg): 0 | Teratogenesis (Raldh2-/- embryos; 0.5 mg/kg): 0 | Teratogenesis (Raldh2-/- embryos; 2.5 mg/kg): 11

COC(=O)c1ccc(C(=O)Nc2ccc3c(c2)C(C)(C)CC(C)(C)S3)cc1 [SHet50, reference compound]
Growth of xenograft tumors versus sesame oil control (OVCAR-3 xenograft tumors): significantly inhibited the growth | Induction of apoptosis (TUNEL) in organotypic cultures [1]: Apoptosis was induced

C/C(=C\c1ccc(C(=O)O)cc1)c1ccc2c(c1)C(C)(C)CCC2(C)C [TTNPB]
Potency relative to RA [3]: 10 fold

CC1=C(/C=C/C(C)=C/C=C/C(C)=C/C(=O)Nc2ccc(O)cc2)C(C)(C)CCC1 [4-HPR, reference compound]
Growth of xenograft tumors versus sesame oil control (OVCAR-3 xenograft tumors): significantly inhibited the growth | Induction of apoptosis (TUNEL) in organotypic cultures [1]: Apoptosis was induced
